In patent publication US4652553A, “Steroidal glycolipids as host resistance stimulators” (priority 1985, dated 1987):

Tested on: Pseudomonas aeruginosa
Assay: In vivo protection of cyclophosphamide-immunocompromised mice against Pseudomonas aeruginosa (LD50, protective index)
Set-up: species or system Pseudomonas aeruginosa (Immunotype 1); CFl female mice
Settings: Table 3; cyclophosphamide-treated mice; dose not stated in table (initial test dose 40 mg per kg)
Protocol: Groups of 15-20 CFl femal mice (Charles River Breeding, Cambridge, MA) weighing 22-28 gm were injected intraperitoneally (i.p.) with cyclophosphamide (Cytoxan; CY) at 250 mg per kg body weight. One to two hours later they were typically injected again with the test material by the route specified. Four days later, the mice were divided into groups of five, each of which were injected i.p. with a different dilution of a suspension of Pseudomonas aeruginosa (Immunotype 1). The number of survivors was determined periodically and an estimate was made of the number of CFU of Pseudomonas organisms necessary to cause 50% lethality by the cumulative method of L. J. Reed and H. Muench (Am. J. Hygiene 27 (1938) 493-497). A protective index (P.I.) was defined as the LD50 for the mice receiving cyclophosphamide and the test compound divided by the LD50 for the mice recieving cyclophosphamide alone. All control mice were injected with aqueous vehicle in the same route and schedule as the test animals.
All compounds for dosing were suspended in a sterile medium referred to as "aqueous vehicle" which contains 0.9% sodium chloride, 0.5% carboxymethyl cellulose, 0.4% Tween 80, and 0.9% benzyl alcohol unless otherwise stated. Test materials were evaluated via subcutaneous (s.c.), i.p., intramuscular (i.m.), orally (p.o.). and intravenous (i.v.) routes of administration. […]

With `C[C@H](N)[C@H]1CC[C@H]2[C@@H]3CC=C4C[C@@H](OCCCCCCS[C@@H]5O[C@H](CO)[C@@H](O)[C@H](O)[C@@H]5O)CC[C@]4(C)[C@H]3CC[C@]12C` [Example 14, 6-(20S-Amino-pregn-5-en-3β-yloxy)hexyl 1-thio-β-D-mannopyranoside] the “Protective Index (log)” value was 4.37 log.
